# Reference: US7534859B2, “Protein kinase C epsilon as modulator of anxiety, alcohol consumption and self-administration of drugs of abuse” (The Regents of the University of California, priority 1998, dated 2009)
# Like-named read-outs stand apart in the source and are kept apart here.
# Assays:
# [1] = system: PKCε−/− and PKCε+/+ mice; experiment: locomotor activity in activity chambers after intraperitoneal injection; assay type: in vivo, mouse; details: for locomotor response (distance traveled), PKCε−/− compared to PKCε+/+: i.p.: diazepam 0.5, 1.5, 4.0 mg/kg, muscimol 0.1, 0.2, 0.4 mg/kg, MK-801 0.01, 0.02, 0.03 mg/kg
# [2] = system: GABAA receptor; experiment: 36Cl− uptake in cortical microsacs from PKCε−/− and PKCε+/+ mice (GABAA receptor function); assay type: biochemical, mouse; details: for activation of GABAA receptors (muscimol-stimulated Cl− uptake): 10^−12M to 10^−9M, 1 μM muscimol
# [3] = system: PKCε−/− and PKCε+/+ mice; experiment: loss of righting reflex (LORR) after intraperitoneal injection; assay type: in vivo, mouse; details: for LORR duration / sensitivity to sedative effects, PKCε−/− compared to wild-type: Example 3, earlier experiment, sedative doses of pentobarbital
# [4] = system: PKCε−/− and PKCε+/+ mice; details: 2-14% ethanol vs water, two-bottle choice
# [5] = system: PKCε−/− and PKCε+/+ mice; details: two weeks liquid diet containing 5% ethanol; 2, 4, 6, 7 hours after removal
# Protocol: Withdrawal seizures known as handling-induced convulsions (HIC) can be induced in mice by handling them after chronic exposure to ethanol. […] Withdrawal seizures were evaluated in 4 PKCε^+/+ and 4 PKCε^−/− mice following two weeks exposure to a fully nutritious liquid diet containing 5% ethanol (Dyets, Bethlehem, Pa.) as the only source of food or fluid. Seizures were videotaped at 2, 4, 6, and 7 hours following removal of ethanol from the cage and rated by observers who were blind to the genotype and drug exposure. Data were averaged across time-points and mice.
# [6] = system: PKCε−/− and PKCε+/+ mice; details: 2.0 g/kg i.p.
# Protocol: Probes were perfused with artificial cerebrospinal fluid (aCSF), and animals were allowed to recover overnight. Mice were placed in open field chambers equipped with photobeams, and dialysis sample tubes were changed at 10 min intervals.
# [7] = system: PKCε; experiment: muscimol/flunitrazepam-stimulated 36Cl− uptake in saponin-permeabilized microsacs treated with PKCε inhibitor peptide; assay type: biochemical, mouse; details: for effect of peptide on the enhancing effect of flunitrazepam on muscimol-stimulated Cl− uptake: wild-type microsacs, 100 μM peptide, 1 μM muscimol and 0.1 μM flunitrazepam, 5 seconds
# Protocol: GABAA receptor function was tested directly in wild-type and mutant mice. […] Following a five minute incubation in a shaking water bath at 34° C., chloride uptake in 200 μl membrane aliquots was initiated by the addition and immediate vortexing of 200 μl of a solution containing […] (0.2 μCi/ml of assay buffer). Drugs (muscimol, flunitrazepam, or ethanol) were added only in the ^36Cl^− solution. […] Hg) onto a 2.5 cm Whatman GF/C glass microfiber filter, using a Hoefer manifold (Hoefer Scientific, San Francisco, Calif.). The filters were washed with an additional 12 ml of cold assay buffer. Filters were submerged in Filtron-X (National Diagnostics) and the amount of radioactivity on the filters was determined by liquid scintillation spectrometry. Muscimol-dependent uptake was defined as the total amount of ^36Cl^− taken up while muscimol was present in the medium minus the amount of ^36Cl^− taken up when muscimol was not present.
# Microsacs were then centrifuged again at 900× g for 15 min at 4° C. and re-suspended in assay buffer with protease inhibitors at 5 mg/ml immediately prior to assaying ^36Cl^− uptake.
# [8] = ethanol 3.2, 3.6, 4.0 g/kg i.p.
compound,measurement,setting,value
C[C@]12N[C@H](Cc3ccccc31)c1ccccc12 [MK-801],"locomotor response (distance traveled), PKCε−/− compared to PKCε+/+",[1],No differences
"CC(=O)[C@H]1CC[C@H]2[C@@H]3CC[C@H]4C[C@H](O)CC[C@]4(C)[C@H]3CC[C@]12C [allopregnanolone, 3alpha-hydroxy-5alpha-pregnan-20-one]",activation of GABAA receptors (muscimol-stimulated Cl− uptake),[2]; microsacs from PKCε+/+ mice,comparatively little effect
same,activation of GABAA receptors (muscimol-stimulated Cl− uptake),[2]; microsacs from PKCε−/− mice,substantially activate
CN1C(=O)CN=C(c2ccccc2)c2cc(Cl)ccc21 [diazepam],"sensitivity to sedative effects (LORR), PKCε−/− compared to PKCε+/+","[3]; diazepam 20, 30, 40 mg/kg i.p., Example 6",30 fold
same,"locomotor response (distance traveled), PKCε−/− compared to PKCε+/+",[1],significant increase in distance traveled
CCO [ethanol],"LORR duration / sensitivity to sedative effects, PKCε−/− compared to wild-type",[3]; [8],significantly higher LORR duration
same,"time required to regain righting reflex (LORR duration), PKCε−/− compared to PKCε+/+","[3]; ethanol 3.2, 3.6, 4.0 g/kg i.p., Example 5",two-fold increase
same,"reduction in ethanol preference, PKCε−/− compared to PKCε+/+",[4],75%
same,reduction in withdrawal seizure severity (HIC score) compared to wildtype littermates,[5],50%
same,"increase in locomotor activity, PKCε−/− compared to PKCε+/+","[1]; male mice, 2 g/kg ethanol i.p., 15-minute period",two-fold greater increase
same,"enhancement of muscimol-stimulated Cl− uptake, PKCε−/− microsacs compared to wild-type",[2]; 1 μM muscimol with 20 mM ethanol or 0.1 μM flunitrazepam,two-fold greater
same,extracellular dopamine levels in nucleus accumbens after administration,[6]; PKCε+/+ mice,transient increase in dopamine levels
same,extracellular dopamine levels in nucleus accumbens after administration,[6]; PKCε−/− mice,No change in dopamine levels
NCc1cc(=O)[nH]o1 [muscimol],"locomotor response (distance traveled), PKCε−/− compared to PKCε+/+",[1],indistinguishable
same,"Cl− uptake stimulated by direct agonist, knockout compared to wild-type","[2]; 0-20 μM muscimol, 5 seconds",similar
CCCC(C)C1(CC)C(=O)NC(=O)NC1=O (centres unmarked) [pentobarbital],"LORR duration / sensitivity to sedative effects, PKCε−/− compared to wild-type",[3]; [8],two-fold greater sensitivity
same,"sensitivity to sedative effects (LORR), PKCε−/− compared to control mice","[3]; pentobarbital 30, 40, 50 mg/kg i.p., Example 6",three-fold greater sensitivity
"S-εV1-2: scrambled version of the εV1-2 peptide, LSETKPAV",effect of peptide on the enhancing effect of flunitrazepam on muscimol-stimulated Cl− uptake,[7],no effect
"εV1-2: selective inhibitor of PKCε, peptide EAVSLKPT",effect of peptide on muscimol and flunitrazepam-stimulated 36Cl− uptake,[7]; microsacs from PKCε−/− mice,did not affect
same,effect of peptide on the enhancing effect of flunitrazepam on muscimol-stimulated Cl− uptake,[7],markedly increased
